Laboratory results taken from PubChem BioAssay AID720620 (The Scripps Research Institute Molecular Screening Center, 2013).
The source made the active and inactive calls.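 The calls were made as follows: active = at least 50% inhibition of the human mitochondrial methionine-charging enzyme at 10 µM; inactive = under 50% inhibition at 10 µM.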

Biological target: Methionine--tRNA ligase, mitochondrial (Homo sapiens) (UniProt Q96GW9)
Experiment: human mitochondrial MetRS inhibitors, late-stage follow-up, counter-screen for T. brucei MetRS inhibitor project, biochemical, radioactivity, [3H]methionine, two concentrations (AID 720620)
Conditions: recombinant human mitochondrial MetRS, [3H]Met-tRNA charging, 60 min, stronger effect = higher value

Methionine--tRNA ligase, mitochondrial (Homo sapiens), sequence (Q96GW9 whole entry, looked up): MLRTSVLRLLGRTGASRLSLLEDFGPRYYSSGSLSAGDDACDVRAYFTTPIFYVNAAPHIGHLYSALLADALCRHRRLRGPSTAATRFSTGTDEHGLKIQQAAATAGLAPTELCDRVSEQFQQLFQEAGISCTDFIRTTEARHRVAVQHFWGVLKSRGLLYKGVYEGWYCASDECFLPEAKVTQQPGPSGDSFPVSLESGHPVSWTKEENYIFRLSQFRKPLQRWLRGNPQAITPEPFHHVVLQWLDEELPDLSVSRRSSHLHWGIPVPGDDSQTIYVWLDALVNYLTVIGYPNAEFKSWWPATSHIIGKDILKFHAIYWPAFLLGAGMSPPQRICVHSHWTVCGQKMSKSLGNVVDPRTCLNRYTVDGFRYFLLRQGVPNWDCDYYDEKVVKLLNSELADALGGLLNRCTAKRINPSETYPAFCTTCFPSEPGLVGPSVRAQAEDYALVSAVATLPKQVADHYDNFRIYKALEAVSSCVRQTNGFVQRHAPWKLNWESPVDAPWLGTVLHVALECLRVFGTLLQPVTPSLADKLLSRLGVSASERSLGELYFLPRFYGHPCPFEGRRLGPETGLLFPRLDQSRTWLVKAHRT

SMILES | inhibition (at 10 µM) | inhibition (inhibition, at 1 µM) [%]
Cc1[nH]c2ccc(Br)cc2c(=O)c1CN1CCCCCC1 | -11% (inactive) | -31.2
C[C@H](O)[C@@H]1C(=O)N2CCc3c([nH]c4ccccc34)[C@@H]2C[C@@H]1N(C)Cc1ccc2c(c1)OCO2 | 24.8% (inactive) | -17.7
O=C1[C@@H]2Cc3c([nH]c4ccccc34)C(c3cccc([N+](=O)[O-])c3)N2C(=O)CN1CCCO (some centres undefined) | 4.46% (inactive) | -17.4
O=C(Nc1ccc(F)c(Cl)c1)C1CC(=O)n2c(nc3ccccc32)N1 (centres undefined) | 4.32% (inactive) | -11.1
O=C(NCc1nc2ccccc2[nH]1)C1=C[C@@H](c2ccc3c(c2)OCO3)C[C@@H](OCCCCO)O1 | -0.58% (inactive) | -3.63
COc1ccccc1NS(=O)(=O)c1cccc(NC(=O)Nc2ccccc2)c1 | 19.1% (inactive) | -9.69
O=C(Cn1cnc2ccccc21)Nc1cccc([N+](=O)[O-])c1 | -2.2% (inactive) | -15.4
O=C(NCc1nc2ccccc2[nH]1)C1=C[C@H](c2ccc(Br)cc2)C[C@H](OCc2ccc(CO)cc2)O1 | 17.2% (inactive) | 0.59
O=C1CC(N(CCc2ccccc2)C(=S)Nc2ccccc2)C(=O)N1c1ccc(Br)cc1 (centres undefined) | 25.6% (inactive) | -25.5
O=C(CN1CCSC1=NCc1ccccc1)c1ccc(Cl)c(Cl)c1 | -25.5% (inactive) | -25.1
COc1ccccc1-n1c(SCC(=O)Nc2ccc(Cl)cc2)nc(O)c(Cc2ccccc2)c1=O | -19.7% (inactive) | -31.6
Brc1cnc2nc(SCc3nc4ccccc4[nH]3)[nH]c2c1 | -14.2% (inactive) | -21.5
CCO[C@@H]1OC(C(=O)NCc2nc3ccccc3[nH]2)=C[C@H](c2ccc(Br)cc2)[C@H]1CCCO | -6.53% (inactive) | -4.89
O=C(NCc1nc2ccccc2[nH]1)C1=C[C@H](c2ccc(Br)cc2)C[C@H](OCCCCO)O1 | -2.4% (inactive) | -6.37
CCO[C@H]1OC(C(=O)NCc2nc3ccccc3[nH]2)=C[C@@H](c2ccc(Br)cc2)[C@@H]1CCCO | 11.7% (inactive) | -15
O=C(NCc1nc2ccccc2[nH]1)C1=C[C@@H](c2ccc(Br)cc2)C[C@@H](OCCCCO)O1 | 29% (inactive) | -9.46
COc1cccc(NC(=O)CSc2nnc3c(n2)[nH]c2ccc(C)cc23)c1 | 40.4% (inactive) | 49.7
O=C(NCc1nc2ccccc2[nH]1)C1=C[C@H](C2CC2)C[C@H](OCc2ccc(CO)cc2)O1 | 12.6% (inactive) | 7.99
O=C1CC(SCc2nc3ccccc3[nH]2)C(=O)N1c1cccc(Cl)c1 (centres undefined) | -0.68% (inactive) | -4.5
O=C(NCc1nc2ccccc2[nH]1)C1=C[C@H](c2ccc3c(c2)OCO3)C[C@H](OCCCCO)O1 | 10.2% (inactive) | -10.7
O=C(C[C@H]1C(=O)N(Cc2ccccc2)C[C@@H]1c1ccc(Br)cc1)Nc1ccc(Br)cc1 | -8.54% (inactive) | -13
O=C(NCc1nc2ccccc2[nH]1)C1=C[C@@H](C2CC2)C[C@@H](OCc2ccc(CO)cc2)O1 | 5.87% (inactive) | -11.4
COc1ccc(CNC(=O)CSc2nnc3c(n2)[nH]c2ccc(F)cc23)cc1 | -12% (inactive) | -29.7
O=C(NNC(=O)c1ccc(-n2cncn2)c([N+](=O)[O-])c1)c1ccc(Cl)cc1 | -21.4% (inactive) | -30.3
O=C(NCc1nc2ccccc2[nH]1)C1=C[C@@H](c2ccc(Br)cc2)C[C@@H](OCc2ccc(CO)cc2)O1 | 16.7% (inactive) | -11.6
CC(=O)c1c[nH]c(C(=O)NCc2cccc(C(F)(F)F)c2)c1 | 43.8% (inactive) | -7.99
O=C(Cn1cc(C(=O)C(=O)N2CCOCC2)c2ccccc21)Nc1cccc(C(F)(F)F)c1 | -6.56% (inactive) | -22.4
